Results published in patent US11471462B2, “Compositions and methods for detecting and treating diabetes” (THE BROAD INSTITUTE, INC., priority 2016, dated 2022).

Key:
Format in all cases: cell-based, human
[1] = test system: SLC16-dependent pyruvate transport; assay: Pyronic FRET pyruvate transport assay in 293T cells; conditions: 293T cells pre-incubated with inhibitor; 0.4 mM pyruvate, pH 7.4
From the text: To obtain “proof of concept” for monocarboxylate transport by SLC16A11, pyruvate was focused on as the metabolite transported by all four SLC16 category I proteins, whose real-time transport in mammalian cells can be readily studied by the pyruvate FRET sensor, pyronic. 293T cells were co-transfected with pyronic and either empty vector control or SLC16A11-V5, which increases SLC16A11 levels without affecting other category I family members (FIG. 3M). Cells were perfused in physiological pH 7.4 Ringer's solution and 0.4 mM pyruvate was added at the indicated time point (FIG. 3D), resulting in an increase of the fluorescence signal, indicative of pyruvate uptake. […] Thus, this is consistent with the increase in fluorescence resulting from SLC16-dependent pyruvate transport.
Cells were transferred onto glass cover slips in 60 mm tissue culture dishes 72 hr prior to the experiment. […] Cytoplasmic pH changes, indicative of H^+ transport, were determined in cells loaded with 1 μM BCECF-AM (Rink, T. J. et al., 1982, J Cell Biol, 95:189-196), a pH sensitive dye. […] Rates of proton influx and efflux were calculated as the slopes immediately following addition and withdrawal of pyruvate, after correcting for baseline drift. Baseline drift due to fluorescence bleaching is calculated during the initial 50 seconds of each trace prior to addition of pyruvate. […]

[2] = test system: SLC16A11; assay: Compound treatment, SLC16A11 expression by ddPCR in SNU761 cells; conditions: SNU761 cells
Outline: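 SNU761 hepatocellular carcinoma cells, plated 24 h, treated with compounds at 10 μM final or vehicle, with treatment times matching the LINCS dataset. SLC16A11 mRNA quantified by TaqMan droplet digital PCR, normalized to TBP or HPRT1.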

[3] = test system: SLC16A11; assay: Compound treatment, SLC16A11 expression by ddPCR in NCIH716 cells; conditions: same concentrations and treatment times as LINCS
Protocol: A small number of the compounds that made the strongest positive connections to the SLC16A11 gene expression signature were selected and tested. […] Methotrexate was also included, which had been annotated as a dihydrofolate reductase inhibitor. SNU761 cells (derived from a human hepatocellular carcinoma) and NCIH716 cells (derived from a human cecum adenocarcinoma), which both express SLC16A11, were treated with the compounds. The same compound concentrations and treatment times were used as in the LINCS dataset experiments. […] For normalization, a different housekeeper gene, HPRT1, was used and obtained similar results with the mTOR inhibitors (FIGS. 14A and 14B).
SNU761 (human hepatocellular carcinoma) and NCIH716 (human cecum adenocarcinoma) were cultured in RPMI Medium 1640 supplemented with 10% Fetal Bovine Serum (FBS), 100 μg/ml Streptomycin and 100 U/ml Penicillin. Cells were grown in a humidified CO2 incubator, at 37° C.
For the unbiased approach taken to investigate the compounds that connected to the SLC16A11 gene expression signature, compounds were obtained from compound management at the Broad Institute.
SNU761 and NCIH716 cells were plated into 96 well plates at a density of 20,000 cells per well. Hepatocytes were plated into collagen coated 96 well plates (Corning, 354408) at a density of 50,000 cells per well. After 24 hours, cells were treated with compounds at a final concentration of 10 μM or vehicle control for the appropriate amount of time.
At the time of collection, cells in 96 well plates were lysed by directly adding 50 μL of RLT buffer (Qiagen). […]
(§1) RNA was DNase treated and converted into cDNA using the High-Capacity RNA-to-cDNA kit (Thermo Fisher Scientific). The following FAM-labeled TaqMan Real-Time PCR assays (Thermo Fisher Scientific) were used to quantify gene expression: SLC16A11 (Hs00601062_g1), SLC16A13 (Hs00416832_m1), SLC16A1 (Hs01560299_m1). […] Droplets were generated and analyzed using a QX200 Droplet Generator and Reader system (BioRad). Data was extracted using QuantaSoft (BioRad) and analyzed using Microsoft Excel.

[4] = test system: SLC16A1; assay: Compound treatment, SLC16A1 expression by ddPCR in SNU761 cells; conditions: 10 μM for 24 hours
Protocol: (§2) FIGS. 14A-14D provide graphs showing that mTOR inhibitors increase SLC16A11, but not SLC16A1 transcript levels. […] SLC16A11 (FIGS. 14A and 14B) and SLC16A1 (FIGS. 14C and 14D) expression was then assessed using droplet digital PCR (ddPCR). Bar plots depict relative fold-changes with respect to DMSO and error bars and standard deviations. Expression is normalized to housekeeping genes TBP or HPRT1.
(§3) A small number of the compounds that made the strongest positive connections to the SLC16A11 gene expression signature were selected and tested. […] Methotrexate was also included, which had been annotated as a dihydrofolate reductase inhibitor. SNU761 cells (derived from a human hepatocellular carcinoma) and NCIH716 cells (derived from a human cecum adenocarcinoma), which both express SLC16A11, were treated with the compounds. […]
as §1

[5] = test system: SLC16A1; assay: Compound treatment, SLC16A1 expression by ddPCR in NCIH716 cells; conditions: 10 μM for 24 hours
Protocol: as §2, §3, §1

[6] = test system: SLC16A11 (A11); assay: ddPCR based screening assay for modulators of SLC16A11 expression (Z′); conditions: SNU 761 cells; compound as positive control
From the text: As detailed herein above, SLC16A11 (A11) belongs to a family of monocarboxylate transporters. Expression of A11 was studied in SNU 761 cell lines. These liver cancer cells are ideal for studying SLC16A11 expression because A11 is expressed in higher quantity in liver cells, although expression of the gene in all tissues is extremely low. The 5 SNP risk haplotype causes lowered expression and interferes with protein-protein interactions between A11 and a cofactor protein, indicating loss of function. Therefore, increasing A11 expression in individuals with the risk haplotype is likely beneficial.
The quality of an assay can be quantified by Z′, a measure of how well the assay can differentiate between the positive and negative controls. Using the formula: […]
First the cells were treated with inhibitor compounds, their RNA was extracted, and that RNA was used as a template to create DNA. Then, the DNA was quantified using droplet digital PCR (ddPCR), analyzed and quantified using QuantaSoft™ (BioRad). […]
From the QuantaSoft scoring of each droplet, the means and standard deviations of SLC16A11 expression levels was determined in response to compound treatment. […] Points in light gray had the gene of interest and were scored as positive (FIG. 17C). SLC16A11 was scored in the graph. […]

[7] = test system: SLC16A11 protein; assay: SLC16A11 protein levels in HuH7 cells cultured with metabolites (Western blot); conditions: HuH7 cells stably expressing SLC16A11, cultured with metabolite 24 hr
From the text: FIG. 19 provides Western blots and experimental protocol steps involved in the analysis of SLC16A11 protein levels after culture of HuH7 cells stably expressing SLC16A11 in the presence or absence of various metabolites, namely, pyruvate, lactate and glucose. Cell lysates were used in the analysis. […] Tubulin is shown as a reference. As shown, glucose, pyruvate and […] are metabolites that affect SLC16A11 protein levels.
FIG. 20 provides Western blots of V5-tagged SLC16A11 (WT) and the V5-tagged SLC16A11 variant, T2D risk, stably expressed in HuH7 cells that had been glucose-starved for the times indicated. Cell lysates were used in the analysis. […] A similar finding is observed in the left blot of FIG. 19, above, in which no SLC16A11 protein was detected in cell lysates cultured for 24 hrs without glucose compared with detectable levels of SLC16A11 protein found in lysates from cultures containing 1-5 g/L of glucose.
FIG. 21 provides Western blots of V5-tagged SLC16A11 (WT) and the V5-tagged SLC16A11 variant, T2D risk, stably expressed in HuH7 cells that been cultured for 24 hours with or without glucose and with either low (L) or high (H) concentrations of pyruvate and lactate as indicated. Cell lysates were used in the analysis. […]

[8] = test system: SLC16A11; assay: Metabolic effectors on SLC16A11 transcript levels in SNU761 cells; conditions: 24 hours, low and high concentrations
Protocol: (§4) FIG. 22 provides bar graphs showing the effects of low and high concentrations of metabolic effectors (oleic acid (OA), insulin and glucagon) on expression levels of SLC16A11 and SLC16A13 transcripts in SNU761 cells cultured for 24 hours in the presence of low/high concentrations of OA (0.3 mM/1.5 mM); insulin (100 nM/500 nM); or glucagon (100 nM/500 nM). Relative transcipt levels of SLC16A11 and SLC16A13 are shown, with 2-FBS (2% Fetal Bovine Serum) used as control.
(§5) FIG. 23 provides bar graphs showing the effects of low and high concentrations of pyruvate or lactate on expression levels of SLC16A11 and SLC16A13 transcripts in SNU761 cells cultured for 24 hours in the presence of 2 mM pyruvate (low), 10 mM pyruvate (high), 20 mM lactate (low), or 100 mM lactate (high). Relative transcipt levels of SLC16A11 and SLC16A13 are shown, compared with transcript levels in cell cultured in increasing concentrations of glucose.
(§6) To assess whether metabolic effectors regulated SLC16A11 and SLC16A13 transcript levels, endogenous transcripts in SNU761 cells (derived from a human hepatocellular carcinoma) were examined following exposure of the cells to different metabolic perturbations. SNU761 cells were cultured in the presence of various metabolic effectors for 24 hours after which time cell lysates were collected and the relative endogenous expression levels of SLC16A11 and SLC16A13 transcripts were assessed. The metabolic effectors included in the cell cultures included oleic acid (OA) at a low concentration (0.3 mM) or a high concentration (1.5 mM); insulin at a low concentration (100 nM) or a high concentration (500 nM) and glucagon at a low concentration (100 nM) and a high concentration (500 nM). Cells cultured in 2-FBS were used as a control. […] (FIG. 22). Similarly, SNU761 cells were cultured in the presence or absence of low or high concentrations of pyruvate or lactate in the culture medium for 24 hours after which time cell lysates were analyzed. In the cultures, low (L) pyruvate concentration was 2 mM; high (H) pyruvate concentration was 10 mM, and low lactate concentration was 20 mM, while high lactate concentration was 100 mM. […] (FIG. 23).

[9] = test system: SLC16A13; assay: Metabolic effectors on SLC16A13 transcript levels in SNU761 cells; conditions: 24 hours, high concentration (10 mM pyruvate, 100 mM lactate)
Protocol: as §4, §5, §6

## Cc1n[nH]c(C)c1Cc1sc2c(c1C(=O)N1C[C@H](O)CO1)c(=O)n(C)c(=O)n2CC(C)C [AR-C155858]
[1]
  pyronic fluorescence signal (pyruvate uptake): completely diminished

## COc1ccc(-c2ccc3c(N4CCOCC4)nc(N4C[C@@H](C)O[C@@H](C)C4)nc3n2)cc1CO [KU-0063794, [5-[2-(2,6-dimethylmorpholin-4-yl)-4-morpholin-4-ylpyrido[2,3-d]pyrimidin-7-yl]-2-methoxyphenyl]methanol]
[2]; same concentrations and treatment times as LINCS, ddPCR
  SLC16A11 transcript levels, compound treated compared to DMSO treated cells: about 3 fold
[2]; same doses and treatment times as in the LINCS dataset
  avg_fc (SLC16A11 expression, compound treated vs DMSO treated cells): 4.009
[2]; unbiased test of 59 top and 20 middle LINCS compounds, LINCS doses and times
  increase in SLC16A11 expression, compound treated compared to DMSO treated cells: ~4 fold
[3]
  SLC16A11 transcript levels, compound treated compared to DMSO treated cells: about 3 fold
[4]
  SLC16A1 expression with respect to DMSO: slight decrease
[5]
  SLC16A1 expression with respect to DMSO: slight decrease
[6]
  A11 expression in manual ddPCR assay: increased

## CC(O)C(=O)O (centres unmarked) [lactate]
[7]
  SLC16A11 protein levels: alter SLC16A11 protein levels
[8]
  SLC16A11 transcript levels: alter transcripts at 17p13
[9]
  relative transcript levels of SLC16A13: increased
